# Source: PubChem BioAssay (NCI)
#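 96-well plates; 48 h exposure; 5 concentrations. Endpoints by linear interpolation between flanking doses. Not reached: highest tested concentration assigned. TGI: concentration producing complete growth inhibition.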
# Columns and labels:
# Assay in all cases: inhibition of tumour cell growth, NCI panel, 48 h
# [1] = tested on: HCT-15 colon
# [2] = tested on: OVCAR-4 ovarian
# [3] = tested on: SN12C renal
# [4] = tested on: 786-0 renal
# [5] = tested on: MALME-3M melanoma
# [6] = tested on: A549 NSCLC
# [7] = tested on: SF-539 CNS
# [8] = tested on: LOX IMVI melanoma
# [9] = tested on: COLO 205 colon
# [10] = tested on: U251 CNS
# [11] = tested on: CCRF-CEM leukemia
# [12] = tested on: UO-31 renal
# [13] = tested on: MDA-N
# [14] = tested on: SK-MEL-5 melanoma
# [15] = tested on: OVCAR-5 ovarian
# [16] = tested on: RXF 393 renal
# [17] = tested on: SK-MEL-28 melanoma
# [18] = tested on: SW-620 colon
# [19] = tested on: MOLT-4 leukemia
# [20] = tested on: HOP-92 NSCLC
# [21] = tested on: SF-295 CNS
# [22] = tested on: KM12 colon
# [23] = tested on: K-562 leukemia
# [24] = tested on: MDA-MB-231 breast
# [25] = tested on: UACC-62 melanoma
# [26] = tested on: OVCAR-8 ovarian
# [27] = tested on: HT29 colon
# [28] = tested on: ACHN renal
# [29] = tested on: SNB-75 CNS
# [30] = tested on: NCI-H226 lung
# [31] = tested on: SK-OV-3 ovarian
# [32] = tested on: UACC-257 melanoma
# [33] = tested on: IGROV1 ovarian
# [34] = tested on: HCT-116 colon
# [35] = tested on: TK-10 renal
# [36] = tested on: CAKI-1 renal
# [37] = tested on: NCI-H460 lung
# [38] = tested on: NCI-H23 lung
# [39] = tested on: MDA-MB-435
# [40] = tested on: HCC-2998 colon
# [41] = tested on: HL-60(TB) leukemia
# [42] = tested on: OVCAR-3 ovarian
# [43] = tested on: NCI-H522 lung
# [44] = tested on: SF-268 CNS
# [45] = tested on: SK-MEL-2 melanoma
# [46] = tested on: MCF7 breast
# [47] = tested on: SR leukemia
# [48] = tested on: RPMI-8226 leukemia
# [49] = tested on: NCI/ADR-RES ovarian
# [50] = tested on: EKVX NSCLC
# [51] = tested on: HOP-62 NSCLC
# [52] = tested on: M14 melanoma
# [53] = tested on: T-47D breast
# [54] = tested on: PC-3 prostate
# [55] = tested on: BT-549 breast
# [56] = tested on: SNB-19 CNS
# [57] = tested on: A498 renal
# [58] = tested on: DU-145 prostate
# [59] = tested on: HS 578T breast
structure (smiles),measurement,setting,value
CCC1(O)CC(O)c2c(O)c3c(c(O)c2C1C(=O)OC)C(=O)c1cccc(O)c1C3=O (centres undefined),TGI,[1],21.1 µM
same,TGI,[2],13.9 µM
same,TGI,[3],17.3 µM
same,TGI,[4],14.3 µM
same,TGI,[5],7.08 µM
same,TGI,[6],14.2 µM
same,TGI,[7],14.8 µM
same,TGI,[8],9.92 µM
same,TGI,[9],7.65 µM
same,TGI,[10],16.6 µM
same,TGI,[11],9.71 µM
same,TGI,[12],13.2 µM
same,TGI,[13],47.1 µM
same,TGI,[14],6.39 µM
same,TGI,[15],21 µM
same,TGI,[16],23.5 µM
same,TGI,[17],75.4 µM
same,TGI,[18],> 48.2 µM
same,TGI,[19],2.19 µM
same,TGI,[20],32.1 µM
same,TGI,[21],10.7 µM
same,TGI,[22],17.4 µM
same,TGI,[23],> 21.8 µM
same,TGI,[24],13 µM
same,TGI,[25],12.4 µM
same,TGI,[26],5.88 µM
same,TGI,[27],14.1 µM
same,TGI,[28],15.1 µM
same,TGI,[29],18.5 µM
same,TGI,[30],18.1 µM
same,TGI,[31],> 36.1 µM
same,TGI,[32],21.8 µM
same,TGI,[33],12.1 µM
same,TGI,[34],11.7 µM
same,TGI,[35],24.3 µM
same,TGI,[36],15.3 µM
same,TGI,[37],14.2 µM
same,TGI,[38],24.4 µM
same,TGI,[39],> 100 µM
same,TGI,[40],21.4 µM
same,TGI,[41],6.07 µM
same,TGI,[42],8.63 µM
same,TGI,[43],4.96 µM
same,TGI,[44],16.2 µM
same,TGI,[45],10.2 µM
same,TGI,[46],16.9 µM
same,TGI,[47],5.91 µM
same,TGI,[48],> 23.1 µM
same,TGI,[49],3.28 µM
same,TGI,[50],6.65 µM
same,TGI,[51],16.6 µM
same,TGI,[52],14.1 µM
same,TGI,[53],32.8 µM
same,TGI,[54],13 µM
same,TGI,[55],34.8 µM
same,TGI,[56],20.9 µM
same,TGI,[57],18.4 µM
same,TGI,[58],21.8 µM
same,TGI,[59],24.5 µM
